Square brackets hold non-standard residues; d marks the D form. Ends that are not written are not given here. pS = N[C@@H](COP(=O)(O)O)C(=O)O
Tests used:
[1] = system: murine embryonic fibroblasts (MEFs) expressing Mfn1 and/or Mfn2; assay: Mitochondrial aspect ratio and polarization in MEFs infected with adenovirus expressing Mfn2 HR1 peptides; format: cell-based; conditions: adenoviral expression; for mitochondrial aspect ratio (length/width; an index of mitochondrial fusion): MOI 100, WT and Mfn2 null MEFs, vs Ad-Null/β-gal control; for mitochondrial aspect ratio (elongation/shortening) compared with adeno-HR1 or Mfn deletion: WT, Mfn1 KO, Mfn2 KO, Mfn1/Mfn2 DKO MEFs; for mitochondrial polarization status: WT MEFs, TMRE
Procedure: The effect of each of the peptides listed in Table 1 on mitochondrial function was tested in a cell culture system using murine embryonic fibroblasts (MEFs) as described in Example 4. Wild-type MEFs express both Mfn1 and Mfn2. Also used were MEFs in which the Mfn2 gene was knocked out (MEF Mfn2 KO). The details of the experiments are provided in Example 3. In these experiments, the MEFs were infected with adenovirus (AV) engineered to express one of the peptides or full-length Mfn2 as a control. Mitochondrial fusion activity was measured using confocal microscopy and quantitative analysis of the mitochondrial aspect ratio which is a measurement of mitochondria length/width and is an accepted index of mitochondrial fusion. […] As with all confocal microscopic images provided herein, treated cells were stained to allow quantitative assessment of mitochondrial aspect ratio and polarization using methods routine in the art. In Examples 4-8, MitoTracker Green is used to stain the mitochondria to allow measurement of mitochondrial length and width to determine the aspect ratio. Red TMRE is used to measure mitochondrial polarization (membrane potential). Blue Hoechst stains nuclei.
Empty adenovirus (Ad-CMV-Null; #1300) and adenoviri expressing β-Galactosidase (Ad-CMV-b-Gal; #1080) or Cre recombinase (Ad-CMV-iCre; #1045) were from Vector Biolabs. Adenoviral expression vectors for hMfn2 HR1 and the minipeptides and Gly or Pro mutants were generated and amplified using standard methods. Adenoviral vectors were added to MEFs at 50% confluence at an MOI of 100.
(§1) MEFs or neurons were grown on chamber slides and infected with recombinant adenoviri for 48-72 hours unless otherwise indicated. MEFs were stained with MitoTracker Green (200 nM, Invitrogen M7514) and Blue Hoechst (10 mg/ml, Invitrogen H3570), with or without tetramethylrhodamine ethyl ester (TMRE; 200 nM, Invitrogen T-669). Neuronal mitochondria were labeled with adenoviral-expressed mitoGFP plus TMRE, or with adeno-mitoDsRed for time-lapse studies. Cover slips were loaded onto a chamber (Warner instrument, RC-40LP) in modified Krebs-Henseleit buffer (138 mM NaCl, 3.7 mM KCl, 1.2 mM KH2PO4, 15 mM Glucose, 20 mM HEPES and 1 mM CaCl2) at room temperature and visualized on a Nikon Ti Confocal microscope equipped with a 60×1.3 NA oil immersion objective. For mitophagy studies MEFs were stained with MitoTracker Green and infected with adeno-mcherry Parkin or stained with LysoTracker Deep Red (50 nM, Invitrogen L-7528); carbonylcyanide p-trifluoromethoxyphenylhydrazone (FCCP, 10 μM for 1 hour) was applied as a positive control. Mitochondrial fusion was measured at 2 and 6 hours after PEG-mediated cell fusion of MEFs treated 48 hours previously with adeno-mitoGFP or adeno-mitoDsRed (Chen et al., 2005, J Biol Chem, 280:26185-26192). Laser confocal fluorescence was excited with 561 nm (MitoTracker Green, GFP, FITC), 637 nm (TMRE, LysoTracker Red, mcherry-Parkin, MitoTracker Orange) or 408 nm (Blue Hoechst) laser diodes. Image analysis—Mitochondrial aspect ratio was calculated using automated edge detection and Image J software (Song et al., 2015, Cell Metab, 21:273-285). Mitochondrial depolarization was calculated as % of green mitochondria visualized on MitoTracker Green and TMRE merged images, expressed as green/(green+yellow mitochondria)×100. Parkin aggregation was calculated as % of cells with mitochondrial clumping of mcherry-Parkin (Song et al., 2015, Cell Metab, 21:273-285). Lysosomal engulfment of mitochondria was identified by colocalization of LysoTracker Red and MitoTracker Green (Song et al., 2015, Cell Metab, 21:273-285).
First, an adenovirus which recombinantly expressed the hMfn2 HR1 binding fragment (adeno HR1) was introduced into MEFs. It was reasoned that competition of the intra-molecular HR1-HR2 interaction by free HR1 fragment would increase mitochondrial fusion. […]

WT MEFs and Mfn2 KO MEFs = assay: Parkin recruitment and mitophagy induced by mitochondrial depolarization, adenoviral expression; format: cell-based, murine; conditions: data not shown
Procedure: as §1
Also studied were the effects of the adenoviral expression of WT Mfn2, HR1 peptide, adeno367-384 and its glycine variant and adeno398-418 and its glycine variant on Parkin recruitment and mitophagy induced by mitochondrial depolarization which are also impaced by the Mfn1 and Mfn2 proteins (Chen et al., 2013, Science, 340:471-475; Gong G. et al., 2015, Science, 350:aad2459). These studies were performed using WT MEFs and Mfn2 KO MEFs.

WT MEFs = format: cell-based, murine; conditions: WT MEFs; varying concentrations / time course
Procedure: as §1
TAT47-57 is a well-characterized “carrier” peptide able to promote active cellular peptide uptake. Specifically, a linear peptide was constructed in which the hMfn2 modulatory peptide was linked by a peptide bond at its C-terminus to a Gly-Gly dipeptide linker whose C-terminus was linked by a peptide bond to the TAT47-57 peptide having the sequence YGRKKRRQRRR (SEQ ID NO:25). The resultant linear fusion-promoting peptide conjugate comprises the sequence […] (SEQ ID NO:23). The fusion-inhibiting linear peptide has the sequence […] (SEQ ID NO:24). Except for dose-response studies, stock concentrations of TAT-minipeptides in sterile water were applied to cultured MEFs at a dilution factor of 1:2000 to achieve final concentrations of 1 or 5 μM.
The functional consequences of the Mfn2 HR1-derived peptides were defined after synthesizing them as C-terminal TAT47-57 conjugates to promote active cellular uptake. Mitochondrial fusion can be detected by mixing of organellar contents (Chen et al., 2005, J Biol Chem, 280:26185-26192). […] (FIG. 8A, scale bar is 20 microns). Mitochondrial aspect ratio changed in parallel with mitochondrial mixing (FIG. 8B).
Experiments were performed with these shortened variants fused to a carrier peptide via a linker according to the methods described in Example 5 above. Wildtype MEFs were treated with varying concentrations of peptide fusion constructs described in Table 4 and mitochondrial aspect ratios determined. A dose response curve for TetherX-N and -C variants are shown in FIG. 17A (squares are data for TetherX-N and circles are for TetherX-C). The dose response curve for GoFuse-N and -C variants are shown in FIG. 17B (squares are for GoFuse-N and circles are for GoFuse-C).

mitochondrial fusion = assay: Alanine scanning of TetherX-1 and Go-Fuse peptides, effect on mitochondrial fusion in cells; format: cell-based; conditions: variants linked to TAT carrier via GG linker; compared with SEQ ID NO:48 or 50
Procedure: Alanine scanning mutagenesis experiments were performed in order to identify amino acids critical for the function of the TetherX-1 and Go-Fuse peptides. Alanine was individually substituted for each amino acid in the Tetherx-1 and Go-Fuse peptides and the modified peptides, linked to the TAT carrier peptide via a GG linker, were administered to cells and the effect on mitochondrial fusion measured. Table 5 lists Go-Fuse variants which maintained fusion-promoting activity (activity similar to that of SEQ ID NO:48 or 50) while Table 6 lists variant Go-Fuse peptides in which substitutions had no effect (substitution of a non-critical amino acid).

Row | Substance | mitochondrial aspect ratio (length/width; an index of mitochondrial fusion) [1] | Parkin recruitment and mitophagy induced by mitochondrial depolarization (WT MEFs and Mfn2 KO MEFs) | mitochondrial aspect ratio (effect of TAT fusion construct) (WT MEFs) | further results
1 | FQNFERRFEECISQSAVKTKFEQHTVRAKQIAEAVRLIMDSLHMAAREQQVYCEEMREERQDRLKFIDKQLELLAQDYKLRIKQ [adeno-HR1] | increased mitochondrial aspect ratio | No significant effects |  | mitochondrial aspect ratio (elongation/shortening) compared with adeno-HR1 or Mfn deletion [1]: altered mitochondrial aspect ratio
2 | GELLAQDYKLRGGYGRKKRRQRRR [TetherX-C] |  |  | provoked mitochondrial fragmentation | 
3 | GIMD(p)SLHMAARGGYGRKKRRQRRR (GIMD[pS]LHMAARGGYGRKKRRQRRR) [SEQ ID NO:54] |  |  |  | fusion-promoting activity (Mfn agonist activity) of Go-Fuse variants (mitochondrial fusion): statistically active
4 | GIMDSLHMAARGGYGRKKRRQRRR [GoFuse-C] |  |  | induced mitochondrial elongation | 
5 | QDRLKFIDKQGELLAQDYKLR [adeno398-418Gly, Mfn2 HR1 minipeptide, expressed in cells from adenoviral vector] | potently suppressed fusion | did not adversely impact |  | mitochondrial polarization status [1]: did not adversely impact mitochondrial polarization status
6 | QDRLKFIDKQGGYGRKKRRQRRR [TetherX-N, N-terminal fragment of TetherX-1 fused to TAT carrier, as tested] |  |  | exhibited little activity | 
7 | QDRLKFIDKQLELLAQDYKLR (listed as Homo sapiens) [adeno398-418] |  | No significant effects |  | 
8 | QIAEAVRGGYGRKKRRQRRRR [GoFuse-N, N-terminal fragment of GoFuse-1 fused to TAT carrier, as tested] |  |  | lacked fusion-promoting activity | 
9 | QIAEAVRGIMDSLHMAAR [adeno367-384Gly, Mfn2 HR1 minipeptide, expressed in cells from adenoviral vector] | promoted fusion | did not adversely impact |  | mitochondrial polarization status [1]: did not adversely impact mitochondrial polarization status; mitochondrial aspect ratio (elongation/shortening) compared with adeno-HR1 or Mfn deletion [1]: comparable to that produced by adeno-HR1
10 | QIAEAVRLIMDSLHMAAR (listed as Homo sapiens) [adeno367-384] |  | No significant effects |  | 
11 | RQVSTAMAEEIRRLSVLVDDY (listed as Homo sapiens) [adeno428-448, non-HR1 control peptide] | did not affect mitochondrial fusion |  |  | 

— patent publication US10578610B2, “Peptide regulators of mitochondrial fusion and methods of use” (priority 2016, dated 2020)
